Source: ChEMBL document CHEMBL2448688, “Selection and optimization of hits from a high-throughput phenotypic screen against Trypanosoma cruzi. Exported from HEOS 25-Oct-2013. See also related datasets CHEMBL3137440 and CHEMBL3137386”
Values after ≈ are worked out from the molar mass of the structure shown. Values joined by “and” are separate entries in the source; they are usually repeats but may differ in a detail not shown here. Identical values can stand only once.

Tests used:
in vitro [1] = settings: human, microsomes, EH
Cytochrome P450 3A4 = Cytochrome P450 3A4 (Homo sapiens, UniProt P08684); assay: DNDI: Human CYP3A4 inhibition determined using 6b-hydroxylation of testosterone
[2] = DNDI: Solubility in phosphate buffer at pH 6.5 determined by nephelometry; settings: phosphate buffer, pH 6.5, Kinetic
[3] = DNDI: Lipophilicity (gLogD) at pH 3; settings: buffer, pH 3, logD
Trypanosoma cruzi [4] = assay: (§1) DNDI: Chagas in Vitro; type: functional, Tulahuen C4 (LacZ)
[5] = DNDI: Lipophilicity (gLogD) at pH 7.4; settings: buffer, pH 7.4, logD
in vitro [6] = settings: human, microsomes, t (1 / 2)
[7] = (§2) DNDI: Cytotoxicity in vitro, against rat skeletal myoblast (L-6) cells; settings: L-6 cells (skeletal myoblasts), IC50
in vitro [8] = settings: human, microsomes
[9] = tested on: Trypanosoma brucei rhodesiense; assay: DNDI: HAT in Vitro; type: functional, organism-based, ATCC 30027; settings: Trypanosoma brucei, ATCC 30027
[10] = DNDI: Solubility in 0.01M HCl at pH 2 determined by nephelometry; settings: 0.01M HCl, pH 2, Kinetic
Trypanosoma cruzi [11] = assay: as §1; type: functional, organism-based, Tulahuen C4 (LacZ)
Leishmania infantum = assay: DNDI: Leish (macro) in Vitro; type: functional, organism-based, MHOM/MA(BE)/67
Trypanosoma cruzi [12] = assay: DNDI: Chagas in vivo at 20 mg/kg, 20 days 2x; type: functional, Tulahuen Swiss po
L6 = assay: as §2; settings: L-6 cells (skeletal myoblasts)
[13] = Trypanosoma cruzi, Tulahuen C4 (LacZ)

Chain of Cytochrome P450 3A4 (P08684 whole entry): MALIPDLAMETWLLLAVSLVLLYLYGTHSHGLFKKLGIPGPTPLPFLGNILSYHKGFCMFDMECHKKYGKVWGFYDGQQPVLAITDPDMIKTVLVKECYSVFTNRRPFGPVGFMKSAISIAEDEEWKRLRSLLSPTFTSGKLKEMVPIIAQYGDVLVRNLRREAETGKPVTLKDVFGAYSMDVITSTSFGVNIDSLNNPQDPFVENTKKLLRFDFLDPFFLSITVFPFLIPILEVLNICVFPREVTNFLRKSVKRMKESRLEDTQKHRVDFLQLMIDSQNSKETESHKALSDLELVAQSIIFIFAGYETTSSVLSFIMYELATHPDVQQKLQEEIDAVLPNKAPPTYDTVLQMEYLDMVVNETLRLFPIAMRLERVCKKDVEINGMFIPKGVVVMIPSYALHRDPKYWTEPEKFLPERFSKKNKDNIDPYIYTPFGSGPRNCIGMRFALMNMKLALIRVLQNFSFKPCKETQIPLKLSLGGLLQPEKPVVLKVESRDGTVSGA

Row | Structure (SMILES) | hepatic extraction ratio (in vitro [1]) | IC50 (Cytochrome P450 3A4) | solubility kinetic [2] | chromatographic logD [3] | IC90 (Trypanosoma cruzi [4]; [13]) | chromatographic logD [5] | half-life (in vitro [6]) | IC50 [7] | microsomal CLint (in vitro [8]) | IC50 [9] | solubility kinetic [10] | IC50 (Trypanosoma cruzi [11]; [13]) | IC90 (Trypanosoma cruzi [4]) | IC50 (Trypanosoma cruzi [11]) | IC50 (Leishmania infantum) | PCR cure rate (Trypanosoma cruzi [12]) | IC50 (L6)
1 | CCN(c1ccccc1)S(=O)(=O)c1ccc(Cl)c(NC(=O)CNC2CCCN(C)C2)c1.O=CO (stereo not drawn) | 0.815 | 16300 nM | 94.4 µg/mL | -0.12 | > 1000 nM | 1.56 | 19.5 min | 45700 nM | 89 µL/min/mg | 910 nM | 101 µg/mL | > 1000 nM | – | – | – | – | –
2 | CN(C)S(=O)(=O)c1ccc(-n2ccnc2)c(NC(=O)c2cnc(-c3ccccc3)s2)c1 | 0.75 | 10000 nM | – | 2.4 | 87 nM | 3 | 22 min | > 100000 nM | 79 µL/min/mg | > 10000 nM | > 100 µg/mL | 13 nM | – | – | – | – | –
3 | CCS(=O)(=O)N(Cc1cccnc1)c1cncc(-c2nc3ccccc3s2)c1 | 0.965 | 1040 nM | 13 µg/mL (≈ 31.8 µM) | 1.89 | 355 nM | 3.19 | 3.1 min | > 100000 nM | 559 µL/min/mg | – | > 82.1 µg/mL | 13.5 nM | – | – | – | – | –
4 | CCN(Cc1cccnc1)c1cc(F)cc(-c2nc3ccccc3s2)c1 | 0.898 | 775 nM | < 0.36 µg/mL | 3.75 | 98 nM | > 4.5 | 9.7 min | 57700 nM | 179 µL/min/mg | – | 57.2 µg/mL (≈ 157 µM) | 47 nM | – | – | – | – | –
5 | CCN(Cc1cccnc1)c1cncc(-c2nc3ccccc3s2)c1 | 0.953 | 790 nM | 3.52 µg/mL (≈ 10.2 µM) | 1.56 | 354 nM | 3.67 | 4.2 min | 31800 nM | 414 µL/min/mg | > 10000 nM | 66.3 µg/mL (≈ 191 µM) | 171 nM | – | – | – | – | –
6 | O=C(NCCc1cnc[nH]1)c1ccc2cc(Br)ccc2c1 | – | 3280 nM | 48.2 µg/mL (≈ 140 µM) | – | > 1000 nM | – | 105 min | 59700 nM | 16.5 µL/min/mg | > 10000 nM | 64.3 µg/mL (≈ 187 µM) | 186 nM | – | – | – | – | –
7 | CCS(=O)(=O)N(Cc1cccnc1)c1cccc(-c2nc3ccccc3s2)c1 | 0.93 | < 250 nM | – | 3.2 | 58.5 nM | 3.6 | 5 min | > 100000 nM | 346 µL/min/mg | > 10000 nM | > 100 µg/mL | 23 nM | – | – | – | – | –
8 | CCN(Cc1cnc[nH]1)c1cc(F)cc(-c2nc3ccccc3s2)c1 | 0.874 | 576 nM | 3.1 µg/mL (≈ 8.8 µM) | 1.98 | – | 4.67 | 12.4 min | – | 138 µL/min/mg | – | > 70.5 µg/mL | 51 nM | 51 nM and 110 nM | 48 nM | – | – | –
9 | CN1CCCC(CNCC(O)COc2ccc3cc(Br)ccc3c2)C1 (stereo not drawn) | – | – | – | – | > 10000 nM | – | – | 19000 nM | – | 7120 nM | – | 5560 nM | – | – | 2030 nM and 1700 nM and 540 nM | – | –
10 | CO/N=C(\C)c1ccc(-n2ccnc2)c(NC(=O)c2cnc(-c3ccccc3)s2)c1 | – | – | – | – | 3 nM | – | – | – | – | > 10000 nM | – | 0.617 nM | 2.77 nM | 0.9 nM | – | 0% | –
11 | CCN(Cc1cccnc1)c1ccc(-c2ccc(F)cc2)cc1F | 0.799 | 1000 nM | < 0.32 µg/mL | 3.49 | 82.5 nM | > 4.5 | 21.5 min | 56300 nM | 80.5 µL/min/mg | – | 59.5 µg/mL (≈ 183 µM) | 17 nM | – | – | – | – | –
12 | Cl.NCC(=O)N(Cc1cccnc1)c1ccc(-c2nc3ccccc3s2)cc1 | – | – | – | – | – | – | – | – | – | – | – | – | – | – | – | 20% | –
13 | CS(=O)(=O)N(Cc1cnc[nH]1)c1cc(F)cc(-c2nc3ccccc3s2)c1 | – | – | – | – | 615 nM | – | – | 66900 nM | – | – | – | 70 nM | 569 nM and > 1000 nM | 65 nM and 74 nM | – | – | 63900 nM
14 | CCN(Cc1cccnc1)c1cccc(-c2nc3ccccc3s2)c1 | 0.86 | 1000 nM | < 1.6 µg/mL | 4.1 | – | 4.9 | 11 min | 41900 nM | 159 µL/min/mg | > 10000 nM | > 100 µg/mL | – | – | – | – | – | –
15 | CCN(c1ccccc1)S(=O)(=O)c1ccc(Cl)c(NC(=O)CN(C)C2CCN(C)CC2)c1 | – | – | – | – | – | – | – | 51500 nM | – | 5430 nM | – | – | > 10000 nM | – | – | – | 54100 nM
16 | O=C(C1CC1)N(Cc1cccnc1)c1cccc(-c2nc3ccccc3s2)c1 | – | – | – | 3.4 | > 100 nM | 4 | 5 min | 60600 nM | 380 µL/min/mg | > 10000 nM | > 100 µg/mL | 29 nM | – | – | – | – | –
17 | CS(=O)(=O)N(Cc1cccnc1)c1ccc(-c2ccc(F)cc2)cc1F | 0.916 | 612 nM | 8.62 µg/mL (≈ 23 µM) | 1.89 | – | 3.18 | 7.9 min | – | 218 µL/min/mg | – | > 74.9 µg/mL | 2 nM | 14.6 nM and 6 nM | 1 nM | – | – | –
18 | CCOC(COc1ccc2cc(Br)ccc2c1)Cn1ccnc1.O=CO (stereo not drawn) | 0.36 | < 250 nM | 12.5 µg/mL | 3.3 | 59 nM | 4.5 | 120 min | 44200 nM | 14 µL/min/mg | > 10000 nM | > 100 µg/mL | 16 nM | – | – | – | – | –
19 | CCN(CC)S(=O)(=O)c1ccc(-n2ccnc2)c(NC(=O)c2cnc(-c3ccccc3)nc2)c1 | 0.9 | 20000 nM | 1.6 µg/mL (≈ 3.36 µM) | 2.7 | – | 3.2 | 10 min | > 100000 nM | 166 µL/min/mg | > 10000 nM | 50 µg/mL (≈ 105 µM) | – | 23.5 nM and 8.03 nM | 6.5 nM and 0.8 nM | – | – | –
20 | O=C(NCCc1cnc[nH]1)c1cnc(-c2ccccc2)cn1 | < 0.23 | 16000 nM | – | 1.3 | – | 2.1 | > 250 min | – | < 7 µL/min/mg | > 10000 nM | > 100 µg/mL | – | – | – | – | – | –
